Experimental data reported in the NIST ThermoML archive (doi:10.1021/je400803f).
± gives the expanded uncertainty stated by the source.

Settings: 101.33 kPa, Liquid, Vibrating tube method

In the case of CC(=O)N(C)C [N,N-dimethylethanamide], the mass density (293.15 K) is reported as 940.92 ± 0.23 kg/m3, the mass density (298.15 K) is reported as 936.3 ± 0.23 kg/m3 and the mass density (303.15 K) is reported as 931.62 ± 0.23 kg/m3. The mass density (308.15 K) was 926.89 ± 0.23 kg/m3, the mass density (313.15 K) was 922.09 ± 0.23 kg/m3 and the mass density (318.15 K) was 917.23 ± 0.23 kg/m3. The mass density (323.15 K) was 912.23 ± 0.23 kg/m3.
CNC=O [N-methylformamide] gave a mass density (293.15 K) of 1003.35 ± 0.23 kg/m3, a mass density (298.15 K) of 998.91 ± 0.23 kg/m3 and a mass density (303.15 K) of 994.49 ± 0.23 kg/m3. The mass density (308.15 K) was 990.01 ± 0.23 kg/m3, the mass density (313.15 K) was 985.47 ± 0.23 kg/m3 and the mass density (318.15 K) was 980.88 ± 0.23 kg/m3. It also gave a mass density (323.15 K) of 976.24 ± 0.23 kg/m3.
CCNC=O [N-ethylformamide] showed a mass density (293.15 K) of 951.59 ± 0.07 kg/m3, a mass density (298.15 K) of 947.48 ± 0.07 kg/m3 and a mass density (303.15 K) of 943.29 ± 0.07 kg/m3. The mass density (308.15 K) was 939.04 ± 0.07 kg/m3, the mass density (313.15 K) was 934.78 ± 0.07 kg/m3 and the mass density (318.15 K) was 930.45 ± 0.07 kg/m3. The mass density (323.15 K) was 926.06 ± 0.08 kg/m3.
For CCCC[N+]1(C)CCCC1.FC(F)(F)C(F)(F)[P-](F)(F)(F)(C(F)(F)C(F)(F)F)C(F)(F)C(F)(F)F, the mass density (293.15 K) was 1588.56 ± 0.76 kg/m3, the mass density (298.15 K) was 1583.15 ± 0.76 kg/m3 and the mass density (303.15 K) was 1577.67 ± 0.75 kg/m3. For the same compound, the mass density (308.15 K) was 1572.16 ± 0.75 kg/m3, the mass density (313.15 K) was 1566.62 ± 0.74 kg/m3 and the mass density (318.15 K) was 1561.06 ± 0.74 kg/m3. It also gave a mass density (323.15 K) of 1555.48 ± 0.73 kg/m3.
Work on CN(C)C=O [dimethylformamide] yielded a mass density (293.15 K) of 948.72 ± 0.23 kg/m3, a mass density (298.15 K) of 943.86 ± 0.23 kg/m3 and a mass density (303.15 K) of 939 ± 0.23 kg/m3. The mass density (308.15 K) was 934.08 ± 0.23 kg/m3, the mass density (313.15 K) was 929.13 ± 0.23 kg/m3 and the mass density (318.15 K) was 924.06 ± 0.23 kg/m3. The mass density (323.15 K) was 918.96 ± 0.23 kg/m3.
With CCCCN(C=O)CCCC [N,N-dibutylformamide] the mass density (293.15 K) was 879.05 ± 0.23 kg/m3, the mass density (298.15 K) was 875.12 ± 0.23 kg/m3 and the mass density (303.15 K) was 871.17 ± 0.23 kg/m3. It also gave a mass density (308.15 K) of 867.15 ± 0.23 kg/m3, a mass density (313.15 K) of 863.11 ± 0.23 kg/m3 and a mass density (318.15 K) of 859.01 ± 0.23 kg/m3. For the same compound, the mass density (323.15 K) was 854.82 ± 0.23 kg/m3.
